What is called pIC50 is the negative decadic logarithm of the IC50, by convention in mol/L.

Among the data in patent US10660877B2 (BRISTOL-MYERS SQUIBB COMPANY, priority 2016, dated 2020) are IC50 values, retold here.

pIC50: −log10 of the molar value. Like-named read-outs stand apart in the source and are kept apart here. Bounds are passed on as bounds.

Assay [1] concerns the target human TLR7 (Homo sapiens (Human), UniProt Q9NYK1). The experiment in a line: TLR7 inhibition reporter assay (HEK-Blue cells, SEAP reporter, gardiquimod stimulation). The class given is cell-based. In general terms: Reporter assays use an easily measured gene product as a stand-in for the process of interest.
Description: TLR7/8/9 Inhibition Reporter Assays
Briefly, cells are seeded into Greiner 384 well plates (15000 cells per well for TLR7, 20,000 for TLR8 and 25,000 for TLR9) and then treated with test compounds in DMSO to yield a final dose response concentration range of 0.05 nM-50 μM. […] After a 22 hour incubation at 37° C., 5% CO2, SEAP levels are determined with the addition of HEK-Blue™ Detection reagent (Invivogen), a cell culture medium that allows for detection of SEAP, according to manufacturer's specifications. The percent inhibition is determined as the % reduction in the HEK-Blue signal present in wells treated with agonist plus DMSO alone compared to wells treated with a known inhibitor.
The target in assay [2] is human TLR8 (Homo sapiens (Human), UniProt Q9NR97). The experiment in a line: TLR8 inhibition reporter assay (HEK-Blue cells, SEAP reporter, R848 stimulation).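 Note: compounds tested from 0.05 nM to 50 µM, 22 h at 37 °C, SEAP measured with HEK-Blue Detection, inhibition relative to agonist plus DMSO versus a known inhibitor.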
human TLR8, sequence (Q9NR97 27-1041): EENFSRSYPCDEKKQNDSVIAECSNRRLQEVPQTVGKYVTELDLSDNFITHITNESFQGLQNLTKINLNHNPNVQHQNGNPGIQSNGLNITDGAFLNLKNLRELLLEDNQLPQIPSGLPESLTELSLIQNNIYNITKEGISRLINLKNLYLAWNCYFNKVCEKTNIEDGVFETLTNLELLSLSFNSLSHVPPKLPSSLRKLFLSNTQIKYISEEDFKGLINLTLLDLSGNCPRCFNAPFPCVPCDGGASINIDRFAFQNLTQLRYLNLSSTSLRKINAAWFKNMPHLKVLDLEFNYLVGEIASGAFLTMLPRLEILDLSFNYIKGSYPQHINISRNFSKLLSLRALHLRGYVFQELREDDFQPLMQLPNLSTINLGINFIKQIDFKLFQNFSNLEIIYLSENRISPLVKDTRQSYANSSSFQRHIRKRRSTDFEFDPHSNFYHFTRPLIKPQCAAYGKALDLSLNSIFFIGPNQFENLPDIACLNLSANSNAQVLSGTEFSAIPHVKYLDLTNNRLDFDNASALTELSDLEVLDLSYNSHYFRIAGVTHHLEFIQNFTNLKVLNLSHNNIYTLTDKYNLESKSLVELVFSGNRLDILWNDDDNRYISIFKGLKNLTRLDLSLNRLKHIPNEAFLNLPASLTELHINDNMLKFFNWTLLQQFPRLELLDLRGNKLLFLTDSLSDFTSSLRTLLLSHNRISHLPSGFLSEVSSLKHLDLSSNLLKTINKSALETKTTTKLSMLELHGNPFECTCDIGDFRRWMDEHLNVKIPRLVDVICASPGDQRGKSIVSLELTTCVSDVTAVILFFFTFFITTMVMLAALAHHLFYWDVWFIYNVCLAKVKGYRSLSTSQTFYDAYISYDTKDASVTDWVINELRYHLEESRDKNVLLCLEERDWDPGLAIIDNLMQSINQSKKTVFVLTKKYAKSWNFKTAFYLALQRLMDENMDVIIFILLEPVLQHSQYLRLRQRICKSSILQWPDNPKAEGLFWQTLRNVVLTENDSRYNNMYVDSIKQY
The target in assay [3] is human TLR9 (Homo sapiens (Human), UniProt Q9NR96). The experiment in a line: TLR9 inhibition reporter assay (HEK-Blue cells, SEAP reporter, ODN2006 stimulation).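 Note: compounds tested over 0.05 nM to 50 µM, 22 h incubation, inhibition taken as SEAP signal drop from agonist plus DMSO wells toward a known inhibitor control.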
human TLR9, sequence (Q9NR96 26-1032): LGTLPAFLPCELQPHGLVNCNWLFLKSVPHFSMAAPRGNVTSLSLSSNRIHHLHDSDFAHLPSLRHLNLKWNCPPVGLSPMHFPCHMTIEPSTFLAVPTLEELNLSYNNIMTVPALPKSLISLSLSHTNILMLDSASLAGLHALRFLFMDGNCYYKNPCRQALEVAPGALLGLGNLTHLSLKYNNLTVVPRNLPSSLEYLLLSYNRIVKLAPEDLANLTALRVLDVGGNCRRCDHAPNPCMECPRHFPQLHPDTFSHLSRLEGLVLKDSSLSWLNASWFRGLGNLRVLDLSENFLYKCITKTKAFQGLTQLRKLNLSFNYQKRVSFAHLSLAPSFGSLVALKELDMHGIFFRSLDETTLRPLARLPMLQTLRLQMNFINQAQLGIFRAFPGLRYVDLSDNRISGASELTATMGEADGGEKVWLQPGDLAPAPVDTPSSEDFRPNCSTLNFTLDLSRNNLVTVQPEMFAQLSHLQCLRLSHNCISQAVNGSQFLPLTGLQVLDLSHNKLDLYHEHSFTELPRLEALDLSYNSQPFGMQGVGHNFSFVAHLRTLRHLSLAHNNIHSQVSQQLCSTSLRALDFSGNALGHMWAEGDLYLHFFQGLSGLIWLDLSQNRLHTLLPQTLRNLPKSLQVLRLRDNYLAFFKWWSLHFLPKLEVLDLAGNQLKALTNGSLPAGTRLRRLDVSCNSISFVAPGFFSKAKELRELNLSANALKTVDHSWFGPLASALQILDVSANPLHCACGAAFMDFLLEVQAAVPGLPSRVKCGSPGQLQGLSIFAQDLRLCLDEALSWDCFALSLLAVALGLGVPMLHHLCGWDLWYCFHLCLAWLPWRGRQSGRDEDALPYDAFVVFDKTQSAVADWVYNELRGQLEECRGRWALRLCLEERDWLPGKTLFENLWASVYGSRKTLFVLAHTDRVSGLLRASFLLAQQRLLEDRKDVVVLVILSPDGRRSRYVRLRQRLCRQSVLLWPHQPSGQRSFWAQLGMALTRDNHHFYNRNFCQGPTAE
The mark [4] stands for this setting: HEK-Blue cells overexpressing human TLR7, gardiquimod 7.5 μM.
Setting [5] is: read-out: TLR8 IC50, HEK-Blue cells overexpressing human TLR8, R848 15.9 μM.
Where [6] appears, read: read-out: TLR9 IC50, HEK-Blue cells overexpressing human TLR9, ODN2006 5 nM.
Setting [7] is: HEK-Blue cells, gardiquimod 7.5 μM.
Where [8] appears, read: read-out: TLR8 IC50, HEK-Blue cells, R848 15.9 μM.
[9] abbreviates: read-out: TLR9 IC50, HEK-Blue cells, ODN2006 5 nM.

human TLR7, sequence (Q9NYK1 27-1049): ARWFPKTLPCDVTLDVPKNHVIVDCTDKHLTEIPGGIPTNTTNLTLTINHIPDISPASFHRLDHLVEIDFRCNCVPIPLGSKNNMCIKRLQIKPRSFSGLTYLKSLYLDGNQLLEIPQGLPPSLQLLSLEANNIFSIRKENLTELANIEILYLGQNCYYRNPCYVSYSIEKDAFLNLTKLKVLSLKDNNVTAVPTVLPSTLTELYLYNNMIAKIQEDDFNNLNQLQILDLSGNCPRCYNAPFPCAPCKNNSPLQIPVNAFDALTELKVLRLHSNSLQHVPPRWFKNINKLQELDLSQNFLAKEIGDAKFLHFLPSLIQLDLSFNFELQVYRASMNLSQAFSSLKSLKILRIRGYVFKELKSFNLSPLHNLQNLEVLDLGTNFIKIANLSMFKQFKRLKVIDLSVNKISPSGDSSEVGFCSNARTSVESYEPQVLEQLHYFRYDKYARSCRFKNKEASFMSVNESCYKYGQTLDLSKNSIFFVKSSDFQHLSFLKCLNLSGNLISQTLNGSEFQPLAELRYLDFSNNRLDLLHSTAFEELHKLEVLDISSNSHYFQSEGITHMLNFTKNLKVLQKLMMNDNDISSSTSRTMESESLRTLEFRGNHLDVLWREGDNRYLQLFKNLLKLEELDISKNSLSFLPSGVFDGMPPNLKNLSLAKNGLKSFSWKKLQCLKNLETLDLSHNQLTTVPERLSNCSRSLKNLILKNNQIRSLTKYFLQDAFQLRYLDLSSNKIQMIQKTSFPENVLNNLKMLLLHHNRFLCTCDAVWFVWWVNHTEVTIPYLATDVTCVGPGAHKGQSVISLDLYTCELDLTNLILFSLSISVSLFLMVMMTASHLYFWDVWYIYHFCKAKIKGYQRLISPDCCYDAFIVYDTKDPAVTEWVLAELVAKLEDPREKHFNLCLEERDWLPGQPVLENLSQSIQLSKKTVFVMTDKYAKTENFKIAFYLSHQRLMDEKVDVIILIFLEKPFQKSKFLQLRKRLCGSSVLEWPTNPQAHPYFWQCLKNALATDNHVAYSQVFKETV

For the compound `Cc1cc(-c2[nH]c3ccc(C4CCN(CCO)CC4)cc3c2C(C)C)cc(C)n1` [Example 329, 2-(4-(2-(2,6-dimethylpyridin-4-yl)-3-isopropyl-1H-indol-5-yl)piperidin-1-yl)ethan-1-ol], the pIC50 is 8.68 in assay [1] (setting [4]), 8.55 in assay [2] (setting [5]) and 6.36 in assay [3] (setting [6]).

For the compound `Cc1cc(-c2[nH]c3ccc(C4CCN(C(=O)CN(C)Cc5cc(C)on5)CC4)cc3c2C(C)C)cc(C)n1` [Example 417, 1-(4-(2-(2,6-dimethylpyridin-4-yl)-3-isopropyl-1H-indol-5-yl)piperidin-1-yl)-2-(methyl((5-methylisoxazol-3-yl)methyl)amino)ethan-1-one], the pIC50 in assay [1] (setting [4]) is 7.99; in assay [2] (setting [5]), 7.14; in assay [3] (setting [6]), 5.03.

As for `Cc1cc(-c2[nH]c3ccc(C4CCN(C(=O)CN(C)[C@@H]5CCOC5)CC4)cc3c2C(C)C)cc(C)n1` [Example 402, (R)-1-(4-(2-(2,6-dimethylpyridin-4-yl)-3-isopropyl-1H-indol-5-yl)piperidin-1-yl)-2-(methyl(tetrahydrofuran-3-yl)amino) ethan-1-one], the pIC50 in assay [1] (setting [4]) is 7.95; in assay [2] (setting [5]) it was 7.21; in assay [3] (setting [6]), 5.74.

`Cc1cc(-c2[nH]c3ccc(C4CCN(C(=O)CN5CCC[C@H]5CO)CC4)cc3c2C(C)C)cc(C)n1` [Example 381, (S)-1-(4-(2-(2,6-dimethylpyridin-4-yl)-3-isopropyl-1H-indol-5-yl)piperidin-1-yl)-2-(2-(hydroxymethyl)pyrrolidin-1-yl)ethan-1-one]: the pIC50 in assay [1] (setting [4]) is 8.66; in assay [2] (setting [5]) it was 8.01; in assay [3] (setting [6]), 6.46.

With `CCc1c(-c2ccnc(C)c2)[nH]c2ccc(C3CCN(C)CC3)cc12` [Example 670, 3-ethyl-5-(1-methylpiperidin-4-yl)-2-(2-methylpyridin-4-yl)-1H-indole], the figures for the pIC50 in assay [1] (setting [4]), in assay [2] (setting [5]) and in assay [3] (setting [6]) were 7.17, 7.19 and 6.18, respectively.

For `Cc1cc(-c2[nH]c3ccc(C4CCN(C(=O)C5(C(N)=O)CC5)CC4)cc3c2C(C)C)cc(C)n1` [Example 133, 1-(4-(2-(2,6-dimethylpyridin-4-yl)-3-isopropyl-1H-indol-5-yl)piperidine-1-carbonyl)cyclopropane-1-carboxamide], the results for the pIC50 in assay [1] (setting [4]), in assay [2] (setting [5]) and in assay [3] (setting [6]) were 7.91, 7.21 and below 4.30, respectively.

Take `Cc1cc(-c2[nH]c3cc(F)c(C4CCN(C5CCN(C(C)C)CC5)CC4)cc3c2C(C)C)ccn1` [Example 825, 6-fluoro-3-isopropyl-5-(1′-isopropyl-[1,4′-bipiperidin]-4-yl)-2-(2-methylpyridin-4-yl)-1H-indole]: the pIC50 was 8.19 in assay [1] (setting [7]), 8.09 in assay [2] (setting [8]) and 6.42 in assay [3] (setting [9]).

Regarding `CCc1c(-c2ccnc(C)c2)[nH]c2ccc(C3CCN(C(=O)C4CC5(CCNCC5)C4)CC3)cc12` [Example 631, (4-(3-ethyl-2-(2-methylpyridin-4-yl)-1H-indol-5-yl)piperidin-1-yl)(7-azaspiro[3.5]nonan-2-yl)methanone], the pIC50 was 7.12 in assay [1] (setting [4]), 7.43 in assay [2] (setting [5]) and 6.36 in assay [3] (setting [6]).

Turning to `CC(=O)Nc1ccc(S(=O)(=O)N2CCC(c3ccc4[nH]c(-c5ccnc(C)c5)c(C(C)C)c4c3)CC2)cc1` [Example 552, N-(4-((4-(3-isopropyl-2-(2-methylpyridin-4-yl)-1H-indol-5-yl)piperidin-1-yl)sulfonyl)phenyl)acetamide], the pIC50 in assay [1] (setting [4]) is 6.89; in assay [2] (setting [5]), 6.95; in assay [3] (setting [6]), below 4.30.

In the case of `CCc1c(-c2ccnc(C)c2)[nH]c2ccc(C3CCN(C(=O)C4CCN(C)CC4)CC3)cc12` [Example 593, (4-(3-ethyl-2-(2-methylpyridin-4-yl)-1H-indol-5-yl)piperidin-1-yl)(1-methylpiperidin-4-yl)methanone], the values for the pIC50 in assay [1] (setting [4]), in assay [2] (setting [5]) and in assay [3] (setting [6]) were 7.37, 7.76 and 6.29, respectively.

With `COc1nccc(-c2[nH]c3ccc(C4CCN(C5CCN(CC(C)C)CC5)CC4)cc3c2C)c1OC` [Example 799, 2-(2,3-dimethoxypyridin-4-yl)-5-(1′-isobutyl-[1,4′-bipiperidin]-4-yl)-3-methyl-1H-indole], the results for the pIC50 in assay [1] (setting [4]), in assay [2] (setting [5]) and in assay [3] (setting [6]) were 5.78, 6.44 and 6.74, respectively.

For `Cc1cc(-c2[nH]c3ccc(C4CCNCC4)cc3c2C(C)C)cc(C)[n+]1[O-]` [Example 56, 2-(2,6-dimethyl-1-(l1-oxidanyl)-1l4-pyridin-4-yl)-3-isopropyl-5-(piperidin-4-yl)-1H-indole], the pIC50 in assay [1] (setting [4]) was 8.34; in assay [2] (setting [5]), 7.62; in assay [3] (setting [6]), 6.09.

Regarding `CC(C)c1c(-c2cc(C3CC3)ncc2F)[nH]c2ccc(C3CCN(CC(=O)N(C)C)CC3)cc12` [Example 515, 2-(4-(2-(2-cyclopropyl-5-fluoropyridin-4-yl)-3-isopropyl-1H-indol-5-yl)piperidin-1-yl)-N,N-dimethylacetamide], the pIC50 in assay [1] (setting [4]) is 7.70; in assay [2] (setting [5]), 6.87; in assay [3] (setting [6]), 5.65.

Take `Cc1cc(-c2[nH]c3ccc(C4CCN(C(=O)CNCCC(C)(C)C)CC4)cc3c2C(C)C)cc(C)n1` [Example 347, 2-((3,3-dimethylbutyl)amino)-1-(4-(2-(2,6-dimethylpyridin-4-yl)-3-isopropyl-1H-indol-5-yl)piperidin-1-yl)ethan-1-one]: the pIC50 is 7.76 in assay [1] (setting [4]), 7.32 in assay [2] (setting [5]) and 6.12 in assay [3] (setting [6]).

Regarding `CCC(O)CN1CCC(c2ccc3[nH]c(-c4ccnc(C)c4)c(C(C)C)c3c2)CC1` (stereo not drawn) [Example 664, 1-(4-(3-isopropyl-2-(2-methylpyridin-4-yl)-1H-indol-5-yl)piperidin-1-yl)butan-2-ol], the pIC50 is 7.99 in assay [1] (setting [4]), 8.35 in assay [2] (setting [5]) and 5.80 in assay [3] (setting [6]).

Turning to `COc1cc(OC)nc(CN2CCC(c3ccc4[nH]c(-c5cc(C)nc(C)c5)c(C(C)C)c4c3)CC2)n1` [Example 447, 5-(1-((4,6-dimethoxypyrimidin-2-yl)methyl)piperidin-4-yl)-2-(2,6-dimethylpyridin-4-yl)-3-isopropyl-1H-indole], the pIC50 in assay [1] (setting [4]) is 8.27; in assay [2] (setting [5]) it was 8.15; in assay [3] (setting [6]) it was 6.35.

For `Cc1cc(-c2[nH]c3ccc(C4CCN(C(=O)[C@H]5CC[C@H](N)CC5)CC4)cc3c2C(C)C)ccn1` [Example 764, ((1r,4r)-4-aminocyclohexyl) (4-(3-isopropyl-2-(2-methylpyridin-4-yl)-1H-indol-5-yl)piperidin-1-yl)methanone], the pIC50 in assay [1] (setting [4]) is 6.76; in assay [2] (setting [5]) it was 6.58; in assay [3] (setting [6]), 6.22.

With `Cc1cc(-c2[nH]c3ccc(C4CCN(C(=O)CNCC5CC5)CC4)cc3c2C(C)C)cc(C)n1` [Example 339, 2-((cyclopropylmethyl)amino)-1-(4-(2-(2,6-dimethylpyridin-4-yl)-3-isopropyl-1H-indol-5-yl)piperidin-1-yl)ethan-1-one], the figures for the pIC50 in assay [1] (setting [4]), in assay [2] (setting [5]) and in assay [3] (setting [6]) were 8.55, 7.88 and 6.06, respectively.

For the compound `CC(C)c1c(-c2ccnc(N(C)C)c2)[nH]c2ccc(C3CCNCC3)cc12` [Example 24, 4-(3-isopropyl-5-(piperidin-4-yl)-1H-indol-2-yl)-N,N-dimethylpyridin-2-amine], the pIC50 in assay [1] (setting [4]) is 5.83; in assay [2] (setting [5]), 6.15; in assay [3] (setting [6]) it was 5.77.

Regarding `CC(C)c1c(-c2cc(Cl)ncc2C#N)[nH]c2ccc(C3CCNCC3)cc12` [Example 26, 6-chloro-4-(3-isopropyl-5-(piperidin-4-yl)-1H-indol-2-yl)nicotinonitrile], the results for the pIC50 in assay [1] (setting [4]), in assay [2] (setting [5]) and in assay [3] (setting [6]) were 6.70, 6.32 and 5.20, respectively.

`Cc1cc(-c2[nH]c3ccc(C4CCN(C5CCOCC5)CC4)cc3c2C(C)C)c(F)cn1` [Example 715, 2-(5-fluoro-2-methylpyridin-4-yl)-3-isopropyl-5-(1-(tetrahydro-2H-pyran-4-yl)piperidin-4-yl)-1H-indole]: the pIC50 in assay [1] (setting [4]) was 7.68; in assay [2] (setting [5]), 8.42; in assay [3] (setting [6]), 5.52.

With `Cc1cc(-c2[nH]c3ccc(C4CCN(CC(=O)N5CCC[C@H]5CO)CC4)cc3c2C(C)C)cc(C)n1` [Example 274, (S)-2-(4-(2-(2,6-dimethylpyridin-4-yl)-3-isopropyl-1H-indol-5-yl)piperidin-1-yl)-1-(2-(hydroxymethyl)pyrrolidin-1-yl)ethan-1-one], the pIC50 in assay [1] (setting [4]) was 8.72; in assay [2] (setting [5]), 8.04; in assay [3] (setting [6]), 6.58.

In the case of `Cc1cc(-c2[nH]c3ccc(C4CCN(CC(=O)N(CCO)Cc5ccc(F)cc5)CC4)cc3c2C(C)C)cc(C)n1` [Example 300, 2-(4-(2-(2,6-dimethylpyridin-4-yl)-3-isopropyl-1H-indol-5-yl)piperidin-1-yl)-N-(4-fluorobenzyl)-N-(2-hydroxyethyl)acetamide], the pIC50 in assay [1] (setting [4]) was 7.54; in assay [2] (setting [5]), 7.15; in assay [3] (setting [6]), 5.78.

For the compound `Cc1cc(-c2[nH]c3ccc(C4CCN(CC5CCC5)CC4)cc3c2C(C)C)cc(C)n1` [Example 467, 5-(1-(cyclobutylmethyl)piperidin-4-yl)-2-(2,6-dimethylpyridin-4-yl)-3-isopropyl-1H-indole], the pIC50 is 8.60 in assay [1] (setting [4]), 8.24 in assay [2] (setting [5]) and 6.81 in assay [3] (setting [6]).

With `C=CC(C)(O)CN1CCC(c2ccc3[nH]c(-c4cc(C)nc(C)c4)c(C(C)C)c3c2)CC1` (stereo not drawn) [Example 853, 1-(4-(2-(2,6-dimethylpyridin-4-yl)-3-isopropyl-1H-indol-5-yl)piperidin-1-yl)-2-methylbut-3-en-2-ol], the pIC50 was 8.64 in assay [1] (setting [7]), 9.00 in assay [2] (setting [8]) and 6.53 in assay [3] (setting [9]).
